Laboratory results from a melting point compilation (Tetko et al.; mined from patent text by program, amines drawn as free bases though some values may be those of a salt).

Row | Compound | melting point [°C]
1 | O=C1N(C2=NCCS2)c2ccccc2C12SCCS2 | 154 to 157
2 | CCCCN(CCCC)Cc1nc(-c2ncn3c2CN(C)C(=O)c2c(Cl)cccc2-3)no1 | 140 to 142
3 | Nc1n[nH]c2c1c1cc(Cl)c(Cl)cc1n2C1OC(CO)C(O)C1O (configuration not stated) | 198 to 201
4 | COC(=O)[C@H](Cc1cccc2ccccc12)NC(=O)[C@H](CC(=O)OC(C)(C)C)NC(=O)c1cccc(NC(=O)C(Cc2ccc(C#N)cc2)NC(=O)OC(C)(C)C)c1 (mixture of isomers) | 182 to 185
5 | CCCN(Cc1ccc(-c2ccccc2-c2nnnn2C(c2ccccc2)(c2ccccc2)c2ccccc2)cc1)c1ncncc1C(=O)OCC | 100 to 103
6 | FC1(F)Oc2ccc(C=Cc3nc(CNc4ccc(CCCCn5ccnn5)cc4)co3)cc2O1 | 102 to 104
7 | CCCCCCCCCCCCCCCCC(=O)Nc1ccc(O)cc1 | 137
8 | CCOC(=O)c1cc(-c2ccc(Cl)cc2)n(-c2ccc(OC)cc2)n1 | 107 to 108
9 | C=Cc1cc2ccc(-c3ccc(C(=O)OC)cc3)cc2cc1C12CC3CC(CC(C3)C1)C2 | 221 to 222
10 | CC(C)(C)c1csc(-c2cc3cc(Cn4c(C(N)=O)cc5ccccc54)ccc3o2)n1 | 151 to 152
11 | O=C(Nc1ccccc1)O[C@@H]1CN=C(c2cccc(Cl)c2)O[C@H]1c1ccccc1 (racemic) | 126
12 | CC(O)CNc1nc(C2C(=O)Nc3ccc(Br)cc32)c2cn(C)nc2n1 (configuration not stated) | 298 to 301
13 | CCc1cccc(CC(=O)O)c1OCCCc1cn(-c2ccc(Cl)cn2)nc1C(C)C | 142 to 143
14 | CCOC(=O)C(NC(=O)OC(C)(C)C)=C1CSCSC1 | 154
15 | CCOC(=O)c1nc(O)n2c1c(=O)n(C)c1cc(C(F)(F)F)ccc12 | > 300
16 | CS(=O)(=O)c1ccc(NC(=O)c2ccccc2Br)cc1 | 168 to 169
17 | Cc1oc(-c2ccccc2)nc1COc1ccc(CCCCc2nnn[nH]2)cn1 | 104 to 105
18 | O=c1ccc(-c2ccc(Cc3nn[nH]n3)cc2)cn1Cc1ccc(Cl)cc1 | 231
19 | CCOC(=O)c1[nH]nnc1Nc1ccc(Cl)cc1 | 161
20 | COc1ccc(/C=C/c2nc3cc(C(=O)O)ccc3[nH]2)cc1OC | > 285
21 | CCCn1ncc2c(=O)[nH]c(-c3cc(Br)ccc3OCC)nc21 | 172 to 173
22 | O=C(CCCCCC(=O)NCCc1c[nH]c2ccccc12)NO | 140 to 142
23 | COc1ccccc1C1=Nc2ccc(N3CCCC3)cc2C(=O)C1 | 312 to 313
24 | CCN1C(=O)C(=C(O)Cc2ccccc2)SC1=S | 74 to 76
25 | CCN(CC)C(=O)NC1CC2c3cccc4[nH]c(C(C)=O)c(c34)CC2N(C)C1 (configuration not stated) | 114 to 116
26 | CCOC(=O)c1cc(=O)c2c(OCC(O)COc3ccc(Cl)cc3Cl)cccc2o1 (configuration not stated) | 98 to 100
27 | Cc1nccn1-c1ccc(-c2cnc([C@H](Cc3ccccn3)N(C=O)c3cc4cc(Cl)ccc4o3)n2C)cc1 | 159 to 161

Row | Compound | melting point [°C]
28 | CCCc1nn(-c2ccc(C(F)(F)F)cn2)cc1CCCCO | 80 to 81
29 | O=C(O)c1cccc(OC(Cl)=CCl)c1 | 137 to 141
30 | O=C(O)C(=NO)C(c1ccc(OCc2ccc3ccc(Cl)cc3n2)cc1)c1ccc(OCc2ccc3ccc(Cl)cc3n2)cc1 | 201 to 202
31 | O=C1CCCc2nc3ccccc3c(NCc3cccc(Cl)c3)c21 | 138 to 140
32 | Cc1ccc(C(=O)c2ccc(F)cc2C)c(F)c1 | 29 to 31
33 | O=C1CCC2(CC1)Cc1ccccc1C2 | 91 to 94
34 | CNC(=C[N+](=O)[O-])NCCCCOc1cccc(CCN(C)C)c1 | 59 to 63
35 | CC(C)(C)[Si](C)(C)Oc1ccc(-c2ccccc2C=C2SC(=O)NC2=O)cc1C12CC3CC(CC(C3)C1)C2 | 277 to 278
36 | Nc1ccc(Oc2ccc(O)c(C(=O)O)c2)cc1 | 223 to 224
37 | CC(C)NC(=O)c1cccc(I)c1C(=O)Nc1ccc(OCC(F)(F)F)nc1 | 200 to 203
38 | CC(C)(C)OC(=O)CCC1(C(=O)O)CCCC1 | 78 to 81
39 | CCOc1ccc(CN2C(=O)C(C)(c3ccccc3Cl)c3cc(Cl)ccc32)c(OC)c1 (configuration not stated) | 124
40 | COCCc1cc(N)n2nc(SC)c(S(=O)(=O)c3ccccc3)c2n1 | 186 to 187
41 | CCOP(=O)(C/C=C\CC1(C(=O)NCC(F)(F)F)c2ccccc2-c2ccccc21)OCC | 88 to 91
42 | CC(O)CCc1ccc(-c2ccccc2F)cc1 (configuration not stated) | 59 to 60
43 | C=C=CP1(=O)OCC(C)(C)CO1 | 128 to 133
44 | COC(=O)c1cccc(-c2ccccc2C#N)c1 | 83 to 85
45 | CCOC(=O)c1ccccc1-c1ccc2nc[nH]c(=O)c2c1 | 151 to 158
46 | CCCC1=C([N+](=O)[O-])C(c2cccc3ccccc23)c2c[nH]nc2N1 (configuration not stated) | 226
47 | CN1C(=O)CC2(Cc3cc4ccccc4n3C2)C1=O (configuration not stated) | 154 to 156
48 | CC(C)C[C@H](N[C@H](CCN1C(=O)c2cc3ccccc3cc2C1=O)C(=O)OC(C)(C)C)C(=O)O | 168 to 169
49 | Cc1nccn1C(=O)Nc1ccccc1 | 205 to 207
50 | Cc1cccc(C(=O)c2[nH]c3cc(Cl)ccc3c2N)c1 | 80 to 88
51 | CC1(C)C(=O)Oc2ccc3ccc(Cn4ccnc4)cc3c21 | 135 to 136
52 | CC(C)OC(=O)c1cc(-n2c(=O)[nH]c3c(c2=O)CCCC3)ccc1Cl | 205 to 207
53 | NC(=O)c1ccc(I)c([N+](=O)[O-])c1 | 152 to 155
54 | COc1cc(C(C)C)c2c(c1)S(=O)(=O)N(COC(=O)C1CCC(=O)N1)C2=O (configuration not stated) | 159 to 160

The next lines start with the values.

Row | melting point [°C] | Compound
55 | 179 | CCOC(=O)c1cn2ccncc2n1
56 | 170 | OC1CCCc2nc3ccccc3c(NCc3ccc(F)cc3)c21 (configuration not stated)
57 | 98 | CCOc1ccc2[nH]c(=O)n(-c3ccc(OC)cc3)c2c1
58 | 122 to 123 | CCc1cccc(CSC)c1NC(=O)CC1c2ccccc2Oc2ccccc21
59 | 127 to 130 | Cc1cccc2c1C=Cc1ccccc1C2(C)NO (configuration not stated)
60 | 192 to 193 | COc1ccc2c3c([nH]c2c1)C(=O)C(CC1CCN(C(=O)OC(C)(C)C)CC1)C3 (configuration not stated)
61 | 69 to 71 | CC(C)(CC(=O)Oc1ccccc1C(C)(C)C)NS(=O)(=O)C(F)(F)F
62 | 116 to 118 | Cc1oc(-c2ccccc2)nc1Cc1cc2cc(C=O)ccc2o1
63 | 107 to 109 | CCCCCCCCc1ccc(CCC(CC)(COC(C)=O)NC(C)=O)cc1 (configuration not stated)
64 | 235 | N=C(N)Nc1nc(C(=O)Nc2cccc(C(=O)NC(CC(=O)O)c3ccccc3)c2)cs1 (racemic)
65 | 69 to 71 | CCCCCCCCCCCCc1ccc(N)c([N+](=O)[O-])c1
66 | 193 | CCN(CC)CCC(=O)Nc1ccc2c(c1)C(=O)c1cc(NC(=O)CCN(CC)CC)ccc1C2=O
67 | 144 | CC1C(=O)N(c2ccc(Cl)cc2)C(=S)N1c1ccc(Cc2ccccc2)cc1 (configuration not stated)
68 | 288 to 290 | O=C1NC(=O)c2c1c(-c1ccccc1)cc1oc3ccc(O)cc3c21
69 | 110 | Cc1cccc(NC(=O)NCC(=O)N(CC(=O)OC(C)(C)C)c2cccc(Cl)c2)c1
70 | 155 to 158 | COc1ccc2c(c1[N+](=O)[O-])C(=O)CC2
71 | 305 to 308 | O=c1[nH]c2cc(C(F)(F)F)cc(C(F)(F)F)c2[nH]c1=O
72 | 140 to 141 | CC(C)N1N=C(c2ccc3c(c2)CCN(C2CCC2)CC3)CCC1=O
73 | 175 to 178 | CN1C(=O)Cc2c(sc3ccccc23)S1(=O)=O
74 | > 200 | O=C(c1cccs1)c1cnn2c(-c3cccc(N4CCCC4=O)c3)ccnc12
75 | 99 to 102 | CC1CCCN1CCCN1CCN(CCCN2CCC(F)(F)C2)C1=C(C#N)C#N (configuration not stated)
76 | 141 to 142 | CCCCOC(=O)N[C@H](C(=O)NCCc1ccc(OCC#Cc2ccc(Cl)cc2)c(OC)c1)C(C)C

Row | melting point [°C] | Compound
77 | 242 to 245 | Cc1oc2c(C)c(C)c(NC(=O)c3ccc(F)cc3)c(C)c2c1-c1ccccc1
78 | 151 to 160 | COc1cc(-c2nc(NC(=O)c3c(C)c4cc(C)ccc4n3CC(=O)O)sc2CCC2CCCCC2)c(OC)cc1Cl
79 | 64 to 65 | Cc1cccc(CON2C(C)(C)CC(OC(=O)c3ccccc3)CC2(C)C)c1
80 | 49 | CCCCc1ccc(-c2ccc(CCc3ccc(OC)cc3)cc2)c(F)c1
81 | 150 to 151 | O=Cc1cn(C2CCCCC2)nc1-c1ccc([N+](=O)[O-])o1
82 | 153 to 155 | O=C(O)c1ccc(OC2CC2)cc1
83 | 158 | CC(C)(C)c1cccc(S(=O)(=O)n2c(Cc3ccc(C(=O)O)cc3)c(F)c3cc(C(F)(F)F)ccc32)c1
84 | 123 to 124 | COC(Nc1ccccc1)(OC)c1ccnc(C(=O)c2ccccc2)c1
85 | 150 to 153 | O=C1CCN(C(=O)Cl)c2cc(Cl)ccc21
86 | 203 to 205 | O=C(Oc1cc(F)ccc1Br)c1cc2cc(CCl)ccc2oc1=O
87 | 97 to 98 | COc1cc(C(O)Cc2ccccc2)ccc1OCc1ccccc1 (configuration not stated)
88 | 175 to 176 | Cc1ccc(-c2cc(C)cn2-c2ccc(S(N)(=O)=O)cc2)cc1
89 | 141 to 143 | CC(O)c1cc(-c2ccc(Cl)cc2)no1 (configuration not stated)
90 | 96.5 to 99.5 | CCCCc1ccccc1NC(C)=O
91 | 353 | O=C1NC(=O)C(=Cc2ccc(-c3cc(C45CC6CC(CC(C6)C4)C5)c4oc(NC(=O)C(F)(F)F)nc4c3)nc2)S1
92 | 82 to 83 | COCOc1cc(CO)n(Cc2ccc(Cl)cc2Cl)n1
93 | 92 to 96 | CCOC(=O)C1=C(COCCN2CCN(c3nc(N)n(C)n3)CC2)NC(C)=C(C(=O)OC)C1c1ccccc1Cl (configuration not stated)
94 | 210 to 211 | CO/C=C1/C(=O)NC(=O)c2ccc(Br)cc21
95 | 147 to 148 | Cc1cc(-c2ccccc2)nc(-c2cccc([N+](=O)[O-])c2)c1C(=O)NCCN1CCOCC1
96 | 125 to 126 | c1ccc2cc(OCCCCCCCCOc3ccc4ccccc4c3)ccc2c1
97 | 207 to 208 | CCc1c(CNc2ccc3ccc(C)nc3n2)c(CC)c(CNc2ccc3ccc(C)nc3n2)c(CC)c1CNc1ccc2ccc(C)nc2n1
